According to ChEMBL document CHEMBL1136604, “Cryptophycin affinity labels: synthesis and biological activity of a benzophenone analogue of cryptophycin-24” (Bioorg Med Chem Lett, 2003):
Values after ≈ are worked out from the molar mass of the structure shown.

Columns and labels:
[1] = tested on: MCF7S; test: Inhibitory activity against MCF-7 cells after 72 hr cell growth; type: functional, cell-based; details: Homo sapiens
[2] = tested on: NCI/ADR-RES; test: Inhibitory activity against MCF7-ADR cells after 72 hr cell growth; type: functional, cell-based; details: Homo sapiens
[3] = tested on: HCT-116; test: Inhibitory activity against HCT116 cells after 24 hr cell growth; type: functional, cell-based; details: Homo sapiens, HCT-116, 24 h
[4] = biological target: Tubulin; test: Concentration required to reduce the amount of pelleted tubulin; type: protein-complex assay
[5] = tested on: KB; test: Cytotoxicity against KB cells; type: functional, cell-based; details: Homo sapiens

`COc1ccc(C[C@H]2NC(=O)/C=C/C[C@@H]([C@H](C)[C@H]3O[C@@H]3c3ccc(C(=O)c4ccccc4)cc3)OC(=O)[C@H](CC(C)C)OC(=O)CCNC2=O)cc1` showed an IC50 [1] of 0.078 nM, an IC50 [2] of 70 nM and an IC50 [3] of 1.1 nM. The IC50 [4] was 7400 nM.

In the case of `COc1ccc(C[C@H]2NC(=O)/C=C/C[C@@H]([C@H](C)[C@@H]3O[C@@H]3c3ccc(C(=O)c4ccccc4)cc3)OC(=O)[C@H](CC(C)C)OC(=O)CCNC2=O)cc1`, the IC50 [1] is reported as 6 nM, the IC50 [2] is reported as 447 nM and the IC50 [3] is reported as 253 nM. For the same compound, the IC50 [4] was over 100000 nM.

For `COc1ccc(C[C@H]2NC(=O)/C=C/C[C@@H]([C@H](C)[C@H]3O[C@@H]3c3ccccc3)OC(=O)[C@H](CC(C)C)OC(=O)CCNC2=O)cc1` [ARENASTATIN A], the IC50 [5] was 0.005 ng/mL (≈ 0.00824 nM), the IC50 [1] was 0.13 nM and the IC50 [2] was 0.164 nM. The IC50 [3] was 0.285 nM and the IC50 [4] was 15000 nM.

`COc1ccc(C[C@H]2NC(=O)/C=C/C[C@@H]([C@H](C)[C@H]3O[C@@H]3c3ccccc3)OC(=O)[C@H](CC(C)C)OC(=O)[C@H](C)CNC2=O)cc1Cl` [CRYPTOPHYCIN A] gave an IC50 [1] of 0.003 nM, an IC50 [2] of 0.013 nM and an IC50 [3] of 0.027 nM. For the same compound, the IC50 [4] was 3700 nM.
